One series has as its target T1, α1β2γ2 GABAA receptor (Homo sapiens, UniProt P14867+P47870).
T1 construct: expressed in transfected cells
Description: Patch clamp electrophysiology assay of recombinant α1β2γ2 GABAA receptors (potentiation of 2 μM GABA-evoked Cl- current). In kind it is cell-based. Particulars: HEK293T cells stably transfected with α1β2γ2 GABAA; whole cell, 2 μM GABA, -80 mV. Put shortly: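 Whole-cell voltage clamp at −80 mV on HEK293T cells stably expressing human α1β2γ2 GABAA. Compounds applied for 3 min, then 2 μM GABA (EC10–EC20) applied to assess potentiation of Cl− current. Ascending 0.003–10 μM concentrations tested on each cell, 180 s apart, with Rm >500 MΩ, Ra <15 MΩ and leak <100 pA as cell criteria.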
For orientation: Patch clamp records ionic current or voltage across a cell membrane.

Series [1] is described as follows: Mouse PK study (i.v. and p.o.). Format: in vivo. Particulars: plasma, male CD1 mice; for half-life: read-out: T1/2 (hr) i.v. (converted); for Vd: read-out: Vss; for bioavailability: 5 mg/kg p.o. vs 1 mg/kg i.v. Here is the method:
Test compounds were dosed to male CD1 mice at 5 mg/kg by oral gavage (p.o.) or 1 mg/kg by intravenous injection (i.v.). Blood samples were taken at 0.083, 0.25, 0.5, 1.0, 3.0, 6.0 and 24 hours post i.v. dosing and at 0.25, 0.5, 1.0, 3.0, 6.0 and 24 hours post p.o. dosing. The plasma concentration of compounds were determined by HPLC.

The test system of another series is PTZ-treated mice. Description: Acute PTZ (pentylenetetrazol-induced seizure) assay. Conditions: 3 mg/kg oral gavage 60 min prior to PTZ 120 mg/kg s.c.; observed 30 min. In kind it is in vivo, Male CD-1 mice. Here is the method:
The anticonvulsant effect of test compounds were assessed in the pentylenetetazol-induced seizure assay in mice similar to methods described in Giardina & Gasior (2009) Curr Protoc Pharmacol., Chapter 5. Male CD-1 mice were housed in groups of five under controlled conditions (temperature of 22±2° C. and 12:12 light-dark cycle, lights on at 8:00 am) and water and food were available ad libitum. The mice were housed for 1 week prior to behavioral testing, at which time they weighed 25-35 g. Pentylenetetrazol (PTZ, Sigma) was dissolved in sterile 0.9% saline at a concentration of 12 mg/mL concentration for subcutaneous administration. Test compounds were formulated and administered via oral gavage at 60 minutes prior to PTZ injection. AU solutions were made fresh and were given in a volume of 10 ml/kg body weight.
Mice were acclimated to the test room for at least 30 min before compound administration. Mice were randomized into at least four test groups (vehicle and at least three doses of the test compound) with 10 mice per group. […] Following the drug pretreatment time, the mice were injected s.c. with PTZ (120 mg/kg). Immediately following the PTZ injection, mice were individually placed into observation chambers (25×15×15 cm) and a three-channel timer was started. Each mouse was continuously observed for 30 min and the following behaviors were recorded by observers blinded to the treatments: 1) latency to clonic convulsions that persist for 3 sec and followed by an absence of righting reflex 2) latency to tonic convulsions, characterized by the rigid extension of all four limbs that exceeded a 90 degree angle with the body 3) latency to death 4) number of clonic and tonic convulsions. Data are presented as mean±S.E.M and one-way analysis of variance with Dunnetfs or Bonferroni's post-hoc test was used to detect significant differences in latency and number between the vehicle and dose group, p values<0.05 were regarded as statistically significant.

[2] abbreviates: iv, 1 mg/kg i.v., read-out: AUClast (hr*ng/mL) i.v.
Setting [3] is: po, 5 mg/kg p.o., read-out: AUClast (hr*ng/mL) p.o.

Where two headings read alike, the source gives them in different places.

T1 sequence (P14867 28-456): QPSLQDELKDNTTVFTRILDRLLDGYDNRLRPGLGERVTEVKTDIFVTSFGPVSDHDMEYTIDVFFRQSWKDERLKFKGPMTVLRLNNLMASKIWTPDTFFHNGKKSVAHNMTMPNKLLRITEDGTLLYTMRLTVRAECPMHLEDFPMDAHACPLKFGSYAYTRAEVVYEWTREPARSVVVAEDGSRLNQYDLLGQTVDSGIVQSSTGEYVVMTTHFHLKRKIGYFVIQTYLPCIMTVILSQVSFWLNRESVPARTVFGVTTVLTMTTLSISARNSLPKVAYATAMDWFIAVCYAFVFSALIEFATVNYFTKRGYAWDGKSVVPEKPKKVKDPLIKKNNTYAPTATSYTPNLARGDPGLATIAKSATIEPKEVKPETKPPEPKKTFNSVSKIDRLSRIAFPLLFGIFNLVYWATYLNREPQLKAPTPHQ
T1 sequence (P47870 25-512 limits assumed): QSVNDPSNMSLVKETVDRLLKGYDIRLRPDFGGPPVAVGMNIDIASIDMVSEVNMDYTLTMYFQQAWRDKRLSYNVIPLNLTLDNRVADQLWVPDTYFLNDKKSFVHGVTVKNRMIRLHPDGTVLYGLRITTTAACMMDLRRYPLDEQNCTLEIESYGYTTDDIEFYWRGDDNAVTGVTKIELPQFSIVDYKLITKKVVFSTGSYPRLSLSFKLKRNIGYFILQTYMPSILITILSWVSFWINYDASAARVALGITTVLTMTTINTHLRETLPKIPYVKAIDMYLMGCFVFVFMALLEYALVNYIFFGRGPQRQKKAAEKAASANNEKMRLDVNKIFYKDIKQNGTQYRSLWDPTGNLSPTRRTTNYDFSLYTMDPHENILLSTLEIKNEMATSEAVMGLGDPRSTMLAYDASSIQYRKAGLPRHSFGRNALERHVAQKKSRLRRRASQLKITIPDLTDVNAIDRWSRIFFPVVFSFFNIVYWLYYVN
T1 sequence (P18507 40-475 partner): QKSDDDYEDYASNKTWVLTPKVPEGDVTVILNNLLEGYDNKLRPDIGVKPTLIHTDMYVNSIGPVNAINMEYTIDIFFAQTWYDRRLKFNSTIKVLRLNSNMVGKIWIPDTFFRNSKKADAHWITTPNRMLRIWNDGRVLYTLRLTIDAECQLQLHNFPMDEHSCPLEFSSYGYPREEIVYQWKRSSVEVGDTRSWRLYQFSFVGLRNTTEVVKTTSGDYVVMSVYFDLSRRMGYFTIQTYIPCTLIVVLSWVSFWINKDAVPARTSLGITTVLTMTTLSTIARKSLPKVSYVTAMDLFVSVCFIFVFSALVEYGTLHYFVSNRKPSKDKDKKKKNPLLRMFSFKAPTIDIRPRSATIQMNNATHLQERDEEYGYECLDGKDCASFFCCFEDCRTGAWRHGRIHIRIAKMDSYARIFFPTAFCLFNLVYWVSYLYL

The EC50 is the midpoint of the concentration-response curve. Usually Cmax stands for the maximum level reached in the sampled fluid or tissue. Usually Tmax stands for the time at which the peak concentration occurs. One may read the bioavailability as dose-corrected exposure relative to a reference, in per cent. On to `Cn1nccc1-n1nnn(CC(=O)[C@H]2CC[C@H]3[C@@H]4CC[C@@H]5C[C@](C)(O)CC[C@@H]5[C@H]4CC[C@]23C)c1=O` [Example 26, 1-(2-((3R,5R,8R,9R,10S,13S,14S,17S)-3-hydroxy-3,13-dimethylhexadecahydro-1H-cyclopenta[a]phenanthren-17-yl)-2-oxoethyl)-4-(1-methyl-1H-pyrazol-5-yl)-1,4-dihydro-5H-tetrazol-5-one], for which the EC50 on α1β2γ2 GABAA receptor came out at 64 nM. Moreover, in series [1] (iv, 1 mg/kg i.v.), the clearance is 15.7 mL/min/kg, the half-life is 1.39 h and the Vd is 1.75 L/kg. For the same molecule, the AUC(0-t) in series [1] (setting [2]) was 1010 ng·h/mL. Also, in series [1] (po, 5 mg/kg p.o.), the peak level (Cmax) was 827 ng/mL and the Tmax stood at 1 h. In addition, the bioavailability in series [1] (po) amounted to 77.1%. Also, the AUC(0-t) in series [1] (setting [3]) came out at 3910 ng·h/mL. Besides, in the series on PTZ-treated mice, the “Clonic Seizure Latency (sec) (Mean)” value amounted to 1547.8 ± 139.2 s, the “Clonic Seizure Number (Mean)” value came out at 0.3 ± 0.2, the “Mortality (%)” value came out at 0.0% and the “Onset of death (sec) (Mean)” value is listed as 1800 + 0.0 sec. In addition, in the series with PTZ-treated mice, the “Tonic Seizure Latency (sec) (Mean)” value was 1800 + 0.0 sec and the “Tonic Seizure Number (Mean)” value is given as 0.0 + 0.0.

Take `C[C@@]1(O)CC[C@H]2[C@H](CC[C@@H]3[C@@H]2CC[C@]2(C)[C@@H](C(=O)Cn4nnn(-c5cn[nH]c5)c4=O)CC[C@@H]32)C1` [Example 28, 1-(2-((3R,5R,8R,9R,10S,13S,14S,17S)-3-hydroxy-3,13-dimethylhexadecahydro-1H-cyclopenta[a]phenanthren-17-yl)-2-oxoethyl)-4-(1H-pyrazol-4-yl)-1,4-dihydro-5H-tetrazol-5-one]: the EC50 on α1β2γ2 GABAA receptor worked out at 140 nM. Further, in series [1] (iv, 1 mg/kg i.v.), the clearance is 7.17 mL/min/kg, the half-life is 6.12 h and the Vd was 2.9 L/kg. Moreover, the AUC(0-t) in series [1] (setting [2]) is 2180 ng·h/mL. Further, in series [1] (po, 5 mg/kg p.o.), the Cmax stood at 563 ng/mL and the Tmax is 6 h. In series [1] (po), the bioavailability amounted to 77.3%. Besides, the AUC(0-t) in series [1] (setting [3]) is 8420 ng·h/mL. In the series on PTZ-treated mice, the “Clonic Seizure Latency (sec) (Mean)” value came out at 573.1 ± 124.9 s, the “Clonic Seizure Number (Mean)” value is recorded as 1.7 ± 0.3, the “Mortality (%)” value is given as 40% and the “Onset of death (sec) (Mean)” value was 1594.7 ± 107.0 s. Besides, in the series on PTZ-treated mice, the “Tonic Seizure Latency (sec) (Mean)” value came out at 1586.3 ± 109.8 s and the “Tonic Seizure Number (Mean)” value was determined as 0.4 ± 0.2.

The record behind these values is US20220089636A1, “TETRAZOLONE SUBSTITUTED STEROIDS AND USE THEREOF” (Beijing Xuanyi PharmaSciences Co., Ltd., priority 2019, published 2022).
